The test addresses T1, Interleukin-1 receptor-associated kinase 4 (Homo sapiens, UniProt Q9NWZ3).
T1 sequence (Q9NWZ3 whole entry): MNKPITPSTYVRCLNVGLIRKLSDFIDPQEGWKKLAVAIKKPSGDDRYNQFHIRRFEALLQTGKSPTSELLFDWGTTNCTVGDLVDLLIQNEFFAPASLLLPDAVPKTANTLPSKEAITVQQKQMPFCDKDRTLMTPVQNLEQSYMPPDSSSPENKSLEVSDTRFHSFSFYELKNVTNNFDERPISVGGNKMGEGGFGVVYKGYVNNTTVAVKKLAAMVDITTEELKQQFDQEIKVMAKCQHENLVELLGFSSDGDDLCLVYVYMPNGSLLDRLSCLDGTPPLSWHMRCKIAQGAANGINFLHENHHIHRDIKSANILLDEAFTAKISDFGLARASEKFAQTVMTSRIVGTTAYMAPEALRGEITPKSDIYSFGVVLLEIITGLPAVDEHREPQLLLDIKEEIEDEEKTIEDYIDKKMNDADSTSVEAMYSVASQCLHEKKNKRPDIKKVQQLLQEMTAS
The test is described as follows: IMAP Technology: The kinase activity of IRAK4 is determined by its ability to catalyze the phosphorylation of a fluorescent polypeptide substrate. […] The reaction is initiated by the addition of ATP. After incubation for 30 minutes at 25° C., 60 μl of Progressive IMAP Reagent (Molecular Devices) is added to stop the reaction. Change in RP7030's FP is determined by a FP reader (Analyst HT, LJL BioSystems).

Consider `Cn1cc(NC(=O)c2cccc(-c3ccnc(NCC4CC4)c3)c2)c(C(N)=O)n1`, for which the IC50 (commonly the concentration needed to halve the response being measured) was 184 nM. This counts as sub-micromolar.

Take `Cn1cc(NC(=O)c2cccc(-c3ccnc(NCC4CC4)c3)n2)c(C(=O)N2CCOCC2)n1`: inhibition was half-maximal at 1830 nM (IC50).

These data come from ChEMBL document CHEMBL5725825, “Inhibitors of IRAK4 activity” (2017).
